Laboratory results published in the supplement of paper PMC11451515.

System: NOMO1
Assay: cell viability relative to DMSO control; higher = less cytotoxic
Conditions: 48 h
Outline: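 Library compounds in DMSO were pin-dosed into 1536-well plates (5 μl) holding NOMO1 or SEM (500 cells/well) or P12-Ichikawa (1000 cells/well) leukemia cells, across an 11-point threefold series of 47 μM to 0.79 nM. Each cell line had been adapted for at least four passages in each medium. CellTiter-Glo One luminescence was read after 48 h at 37°C. Viability is the per-plate percentage relative to DMSO wells, with cell-free wells as background.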

[1] = HPLM + 10% dialyzed FBS, 0.000781 µM
[2] = HPLM + 10% dialyzed FBS, 0.00234 µM
[3] = HPLM + 10% dialyzed FBS, 0.00702 µM
[4] = HPLM + 10% dialyzed FBS, 0.0211 µM
[5] = HPLM + 10% dialyzed FBS, 0.0632 µM
[6] = HPLM + 10% dialyzed FBS, 0.19 µM
[7] = HPLM + 10% dialyzed FBS, 0.569 µM
[8] = HPLM + 10% dialyzed FBS, 1.71 µM
[9] = HPLM + 10% dialyzed FBS, 5.12 µM
[10] = HPLM + 10% dialyzed FBS, 15.4 µM
[11] = HPLM + 10% dialyzed FBS, 46.1 µM
[12] = RPMI 5 mM glucose + 10% FBS, 0.000781 µM
[13] = RPMI 5 mM glucose + 10% FBS, 0.00234 µM
[14] = RPMI 5 mM glucose + 10% FBS, 0.00702 µM
[15] = RPMI 5 mM glucose + 10% FBS, 0.0211 µM
[16] = RPMI 5 mM glucose + 10% FBS, 0.0632 µM
[17] = RPMI 5 mM glucose + 10% FBS, 0.19 µM
[18] = RPMI 5 mM glucose + 10% FBS, 0.569 µM
[19] = RPMI 5 mM glucose + 10% FBS, 1.71 µM
[20] = RPMI 5 mM glucose + 10% FBS, 5.12 µM
[21] = RPMI 5 mM glucose + 10% FBS, 15.4 µM
[22] = RPMI 5 mM glucose + 10% FBS, 46.1 µM
[23] = RPMI 5 mM glucose + 10% dialyzed FBS, 0.000781 µM
[24] = RPMI 5 mM glucose + 10% dialyzed FBS, 0.00234 µM
[25] = RPMI 5 mM glucose + 10% dialyzed FBS, 0.00702 µM
[26] = RPMI 5 mM glucose + 10% dialyzed FBS, 0.0211 µM
[27] = RPMI 5 mM glucose + 10% dialyzed FBS, 0.0632 µM
[28] = RPMI 5 mM glucose + 10% dialyzed FBS, 0.19 µM
[29] = RPMI 5 mM glucose + 10% dialyzed FBS, 0.569 µM
[30] = RPMI 5 mM glucose + 10% dialyzed FBS, 1.71 µM
[31] = RPMI 5 mM glucose + 10% dialyzed FBS, 5.12 µM
[32] = RPMI 5 mM glucose + 10% dialyzed FBS, 15.4 µM
[33] = RPMI 5 mM glucose + 10% dialyzed FBS, 46.1 µM

| SMILES | cell viability [1] [%] | cell viability [2] [%] | cell viability [3] [%] | cell viability [4] [%] | cell viability [5] [%] | cell viability [6] [%] | cell viability [7] [%] | cell viability [8] [%] | cell viability [9] [%] | cell viability [10] [%] | cell viability [11] [%] | cell viability [12] [%] | cell viability [13] [%] | cell viability [14] [%] | cell viability [15] [%] | cell viability [16] [%] | cell viability [17] [%] | cell viability [18] [%] | cell viability [19] [%] | cell viability [20] [%] | cell viability [21] [%] | cell viability [22] [%] | cell viability [23] [%] | cell viability [24] [%] | cell viability [25] [%] | cell viability [26] [%] | cell viability [27] [%] | cell viability [28] [%] | cell viability [29] [%] | cell viability [30] [%] | cell viability [31] [%] | cell viability [32] [%] | cell viability [33] [%] |
| --- | --- | --- | --- | --- | --- | --- | --- | --- | --- | --- | --- | --- | --- | --- | --- | --- | --- | --- | --- | --- | --- | --- | --- | --- | --- | --- | --- | --- | --- | --- | --- | --- | --- |
| OCCNC1CCCc2c1[nH]c1ccc(-c3ccccc3)cc21 (stereo not drawn) | 81.8 | 93.5 | 106 | 105 | 117 | 112 | 109 | 105 | 104 | 87.1 | 11.2 | 93.4 | 103 | 109 | 105 | 111 | 96.5 | 109 | 110 | 100 | 98.6 | 14.7 | 83.7 | 97.4 | 106 | 105 | 111 | 99.4 | 104 | 96.3 | 105 | 88.6 | 22.7 |
| Cc1cc(SCc2sc(-c3ccc(C(F)(F)F)cc3)nc2C)ccc1OCC(=O)O | 102 | 113 | 97.5 | 124 | 109 | 110 | 104 | 92.3 | 102 | 94.8 | 78.1 | 100 | 97.1 | 85.9 | 99.1 | 90.3 | 95 | 90.7 | 102 | 86.6 | 91.4 | 81.9 | 93.2 | 95.1 | 101 | 108 | 92.2 | 102 | 99.6 | 97.7 | 101 | 89.2 | 83.1 |
| C[C@@H](NCc1cc2ccccc2[nH]1)c1cccc2ccccc12 | 88.3 | 82.2 | 91.6 | 90.6 | 94.6 | 95.5 | 91.9 | 95.2 | 97.1 | 92.3 | 100 | 84.3 | 87.5 | 80.1 | 86.1 | 90.5 | 88.1 | 97.4 | 89.8 | 95.5 | 94.5 | 91.8 | 93.6 | 89.8 | 89 | 87.8 | 84.2 | 102 | 102 | 93.7 | 97 | 92.3 | 102 |
| O=[S+]([O-])(O)c1ccc2cc(/N=N/c3cc([S+](=O)([O-])O)c4cccnc4c3O)ccc2c1 | 114 | 122 | 133 | 136 | 129 | 139 | 122 | 126 | 127 | 110 | 44 | 116 | 106 | 111 | 109 | 119 | 119 | 109 | 110 | 101 | 110 | 44.2 | 121 | 124 | 117 | 115 | 119 | 113 | 121 | 119 | 110 | 106 | 62.1 |
| NC(=O)c1cnc(-c2ccc(C3(N)CCC3)cc2)c(-c2ccccc2)c1 | – | – | – | – | – | – | – | – | – | – | – | 119 | 117 | 126 | 117 | 136 | 122 | 128 | 132 | 127 | 131 | 76.9 | – | – | – | – | – | – | – | – | – | – | – |
| CC(=O)Oc1cc2c(s1)CCN(C(C(=O)C1CC1)c1ccccc1F)C2.Cl (stereo not drawn) | 90.3 | 106 | 104 | 117 | 98.3 | 107 | 116 | 64.7 | 58 | 42.7 | 16 | 98.5 | 92.7 | 95.5 | 94.3 | 97.3 | 108 | 91.1 | 76.8 | 64.4 | 51.7 | 18.7 | 88 | 95.6 | 100 | 101 | 90.4 | 99.6 | 103 | 86.4 | 62.1 | 40.3 | 25.1 |
| CC(C)C(=O)Nc1ncc(-c2cc(C(F)F)nn2-c2c(Cl)cccc2Cl)s1 | 116 | 123 | 112 | 137 | 152 | 125 | 148 | 132 | 133 | 133 | 83.9 | – | – | – | – | – | – | – | – | – | – | – | – | – | – | – | – | – | – | – | – | – | – |
| CC1=CC=C2\N=C/3N(CC[C@@]3(O)C(=O)C2=C1)C4=CC=CC=C4 | 102 | 103 | 96.2 | 104 | 104 | 95.4 | 105 | 88.3 | 74 | 88.9 | 91.3 | 82 | 88.2 | 93.6 | 85.4 | 79.3 | 79.5 | 84 | 84.4 | 75.8 | 92.2 | 85.9 | 94.5 | 95.1 | 87.5 | 86.7 | 101 | 92 | 86.7 | 88.9 | 79.2 | 84.9 | 82.9 |
| CN[C@H]1[C@H](O[C@@H]2[C@H](O[C@@H]3[C@@H](O)[C@@H](O)[C@@H](NC(=N)N)[C@@H](O)[C@H]3NC(=N)N)O[C@H](C)[C@@]2(O)C=O)O[C@@H](CO)[C@@H](O)[C@H]1O | 117 | 115 | 118 | 111 | 130 | 120 | 101 | 96.1 | 89 | 66.9 | 23.7 | 109 | 113 | 112 | 109 | 112 | 104 | 103 | 111 | 96.6 | 101 | 26.1 | 106 | 107 | 103 | 113 | 114 | 105 | 102 | 109 | 105 | 87.1 | 26.2 |
